From US11932605B1, “9-(4-nitrobenzylidene)-4-(4-nitrophenyl)-3-cyano-2-methoxy-6,7,8,9-tetrahydro-5h-cyclohepta[b]pyridine as an antimicrobial compound” (KING FAISAL UNIVERSITY, priority 2023, dated 2024)

Legend:
Staphylococcus aureus = test: Antimicrobial testing by agar dilution, Staphylococcus aureus; format: cell-based; settings: after 10, 20, 40 and 60 min at all dilutions 1:100, 1:200, 1:400, 1:800
Description: (§1) The antimicrobial properties of the 9-(4-Nitrobenzylidene)-4-(4-nitrophenyl)-3-cyano-2-methoxy-6,7,8,9-tetrahydro-5H-cyclohepta[b]pyridine was studied by the method of agar dilution. Test solutions of each compound was prepared in concentration of 1% using dimethylformamide as a solvent then they are diluted in physiological solution to obtain the final experimental dilutions 1:100, 1:200, 1:400, 1:800. The effect of these substances are compared with furacillin in a controllable study. The testing microbes used were gram positive bacteria Staphylococcus aureus, gram negative bacteria Pseudomonas aeruginosa, Escherichia coli and Candida albicans fungi were taken.
(§2) The experiments used for this survey were meat-pentonlu agar (EPA) for cultivation of bacteria and Saburo environment for fungi. Each experiment used 1 mL of test solution on each plate 500 min. Add 2 drops of emulsified with microbes feel. All experimental samples were taken from the agar after 10, 20, 40, 60 minutes in the environment on the basis of Patrk planted. Bacteria were cultivated at a temperature of 37° C. for 1 day and the mushroom was kept in a thermostat for […] at a temperature of 28° C. Then the results were checked.

Escherichia coli = test: Antimicrobial testing by agar dilution, Escherichia coli; format: cell-based; settings: after 10, 20, 40 and 60 min at all dilutions 1:100, 1:200, 1:400, 1:800
Description: as §1, §2

Pseudomonas aeruginosa = test: Antimicrobial testing by agar dilution, Pseudomonas aeruginosa; format: cell-based; settings: after 10, 20, 40 and 60 min at all dilutions 1:100, 1:200, 1:400, 1:800
Description: as §1, §2

Candida albicans = test: Antimicrobial testing by agar dilution, Candida albicans; format: cell-based; settings: after 10, 20, 40 and 60 min at all dilutions 1:100, 1:200, 1:400, 1:800
Description: as §1, §2

**Q.** Which inhibition activity (Staphylococcus aureus) does the source give for `COc1nc2c(c(-c3ccc([N+](=O)[O-])cc3)c1C#N)CCCC/C2=C\c1ccc([N+](=O)[O-])cc1` [9-(4-nitrobenzylidene)-4-(4-nitrophenyl)-3-cyano-2-methoxy-6,7,8,9-tetrahydro-5H-cyclohepta[b]pyridine] here?
**A.** most higher inhibition activity

**Q.** What about the inhibition activity (Escherichia coli) of the same compound?
**A.** most higher inhibition activity

**Q.** And the inhibition activity (Pseudomonas aeruginosa)?
**A.** most higher inhibition activity

**Q.** And the inhibition activity (Candida albicans)?
**A.** most higher inhibition activity

**Q.** What about the melting point of the same compound?
**A.** 133 to 135 °C
